# Data from patent US4775743A, “Peptide derivatives” (Green Cross Corporation, priority 1985, dated 1988).
# Square brackets hold non-standard residues; d marks the D form. Ends that are not written are not given here. Peptide text beside a SMILES is read from it. * marks the point of attachment. Desaminotyrosyl = O=C(CCc1ccc(O)cc1)*; Hyp = O=C(O)[C@@H]1C[C@@H](O)CN1
# How the values were obtained:
# [1] = background statement on the prior-art compound; cited from earlier work
# [2] = tested on: rat PRP (platelet-rich plasma) / rat washed platelets; assay: Platelet agglutination inhibitory action (in vitro); format: cell-based; conditions: agglutination induced by arachidonic acid (1 mM), thrombin (0.8 U/ml) or Ca ionophore A-23187 (4 μM), FIGS. 1, 2 and 3
# Protocol: Blood samples were taken from the abdominal artery of rats by means of a syringe containing 3.8% solution of sodium citrate, and the mixture (sodium citrate:blood=1:9) was centrifuged for ten minutes, giving platelet-rich plasma (PRP).
# PRP thus collected was placed in cuvettes and kept in an incubator held at 37° C. for two minutes. Solutions of the compound obtained in Example 1 with different concentrations (diluted with a solution of 1.5 mM EDTA in a mixture of Tris-HCl buffer and sodium chloride solution (1:5)) were added, the resulting mixture in each cuvette was incubated for three minutes, and Ca ionophore A-23187 (final concentration: 4 μM), arachidonic acid (1 mM) or thrombin (0.8 U/ml) was added to measure the degree of agglutination. A solution of heparin sodium was used in place of sodium citrate when arachidonic acid was employed as agglutination inducer.
Molecule,half-life in the blood [1],strength of inhibitory effect against platelet agglutination relative to compound P (control) [2]
P[Hyp]GAG [Compound P],about ten,–
"C[C@H](NC(=O)CNC(=O)[C@@H]1C[C@@H](O)CN1C(=O)[C@@H]1CCCN1C(=O)CCc1ccc(O)cc1)C(=O)NCC(=O)O [HP, N-3-(4-hydroxyphenyl)propionyl-L-prolyl-L-hydroxyprolyl-glycyl-L-alanyl-glycine] (Desaminotyrosyl-P[Hyp]GAG-OH)",–,about ten
